This is an account of results in patent US11021445B2, “Carboxylic acid derivative as AT2R receptor antagonist” (SHANDONG DANHONG PHARMACEUTICAL CO., LTD., priority 2017, dated 2021).

The target of one data set is T1, hAT2 (Homo sapiens, UniProt P50052).
T1 construct: expressed in transfected cells; host or cells: HEK-293
T1 sequence (P50052 1-363): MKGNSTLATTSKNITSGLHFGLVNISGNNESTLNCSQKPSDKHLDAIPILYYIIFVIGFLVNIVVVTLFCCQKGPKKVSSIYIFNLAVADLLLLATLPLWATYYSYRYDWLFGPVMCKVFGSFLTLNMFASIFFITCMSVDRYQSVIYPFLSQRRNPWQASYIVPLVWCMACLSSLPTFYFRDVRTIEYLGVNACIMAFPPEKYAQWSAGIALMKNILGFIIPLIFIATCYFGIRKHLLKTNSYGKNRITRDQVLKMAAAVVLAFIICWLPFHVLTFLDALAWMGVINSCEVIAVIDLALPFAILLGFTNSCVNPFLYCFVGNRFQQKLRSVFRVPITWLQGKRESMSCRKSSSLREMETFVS
As to the kind of experiment: hAT2 receptor binding assay (SPA, [125I]-Sar1-Ile8-Angiotensin II). The conditions noted are these: membrane of HEK-293 cells overexpressing hAT2; 0.1 nM 125I ligand. A digest of the protocol:
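Competition binding by scintillation proximity: 0.1 nM final [125I]-Sar1-Ile8-Angiotensin II was displaced from hAT2-overexpressing HEK-293 membranes (1.25 μg/well, beads 250 μg/well). Test compounds were run in 8 concentrations at 3-fold steps, diluted 250-fold from stock, with overnight room-temperature shaking before counting.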

A short description of data set [1]: Plasma protein binding rate (PPB) test, equilibrium dialysis. The conditions noted are these: Sprague-Dawley, rat, 37°C, read-out: Plasma Protein Binding (%) SD Rat Plasma (converted). It is filed as in vitro ADME, Sprague-Dawley rats. As for the experimental part:
In vitro protein binding rates of 0.2 μM, 2 μM, 10 μM of test compounds with Sprague-Dawley rats, beagle dogs, human plasma were determined by equilibrium dialysis.
The experiment will use a 96-well equilibrium dialysis plate (HTDialysis device) to determine the plasma protein binding rate of the to-be-tested compound and the control compounds.
Prior to the start of the experiment, the dialysis membrane was pretreated according to the instructions for use and the dialysis unit was assembled as required.
Blank plasma was taken from CD-1 mice, Sprague-Dawley rats, Beagle dogs, cynomolgus monkeys and humans (an anticoagulant is EDTA-K2, which is a commercial product purchased, or is collected and prepared by the Drug Evaluation Department of Wuxi AppTech, and is stored in a refrigerator below −60° C. before use). A certain volume of the to-be-tested compound or the control compound working solution was added to prepare plasma samples of the compound to be tested at a concentration of 0.2, 2, 10 μM and plasma samples of the control compound at a concentration of 2 μM (n=1). The organic phase content was ≤1%. First, a certain volume of a plasma sample containing the to-be-tested compound and the control compound was taken out into the sample receiving plate as a sample at zero time (T0 sample, n=3); secondly, a plasma sample containing the to-be-tested compound and the control compound was added to one side of the dialysis membrane (plasma end, n=3), and a certain volume of dialysis buffer (buffer end, n=3) was added to the other side of the dialysis membrane; then the dialysis plate was placed in a humidified incubator with 5% CO2 for incubation for 4 hours at 37±1° C.
After the incubation, a certain volume of the dialyzed buffer sample (F sample) and the dialyzed plasma sample (T sample) were transferred to the sample receiving plate, and all samples were subjected to protein precipitation for LC/MS/MS analysis. And the dissociation rate of the compound (% Unbound) was calculated by the following formula: % Unbound=100*[F]/[T], % Bound=100−% Unbound. Wherein, % Unbound is the dissociation rate of the compound; % Bound is the binding rate of the compound; [F] is the concentration of the compound at the buffer end of the dialysis plate; [T] is the concentration of the compound at the plasma end of the dialysis plate; and the experimental results are shown in Table 7.

Turning to `COc1ccc2c(c1OCc1ccccc1)C[C@@H](C(=O)O)N(C(=O)[C@@H](OC1CCCC1)c1ccccc1)C2` [Compound 37], the IC50 at hAT2 came to 4.1 nM. The fraction unbound at 4 h in data set [1] is 0.001. `COc1ccc2c(c1OCc1ccccc1)C[C@@H](C(=O)O)N(C(=O)[C@@H](OC1CC(F)(F)C1)c1ccccc1)C2` [Compound 51] registered an IC50 on hAT2 of 3.2 nM. Moreover, in data set [1], the fraction unbound at 4 h is 0.055. On the same counts, the results for `COc1ccc2c(c1OCc1ccccc1)C[C@@H](C(=O)O)N(C(=O)[C@@H](OC1(C)CCCC1)c1ccccc1)C2` [Compound 57] are 5.8 nM and 0.002. In turn, `COc1ccc2c(c1OCc1ccccc1)C[C@@H](C(=O)O)N(C(=O)[C@@H](O[C@H]1CC[C@@H](O)CC1)c1ccccc1)C2` [Compound 63] returned an IC50 at hAT2 of 10.3 nM. In addition, the fraction unbound at 4 h in data set [1] is 0.011.

As to `O=C(O)[C@@H]1Cc2c(ccc(Cl)c2OCc2ccccc2)CN1C(=O)[C@@H](OC1CCCC1)c1ccccc1` [Compound 107], the IC50 at hAT2 worked out at 13.2 nM. Turning to `COc1ccc2c(c1OCc1ccccc1)C[C@@H](C(=O)O)N(C(=O)C(c1ccccc1)c1ccccc1)C2` [EMA-401, reference compound], the fraction unbound at 4 h in data set [1] is 0.001.

The IC50 is the concentration that gives 50% inhibition. High values mean weaker potency in that assay, low ones greater potency in that assay.
